From US9695192B2, “Fused heterocyclic compounds as ion channel modulators” (GILEAD SCIENCES, INC., priority 2011, dated 2017)

Molecular target: wild-type human cardiac sodium channel, hNav1.5 (Homo sapiens, UniProt Q14524)
Assay: Late INa screening assay (QPatch whole cell patch clamp, tefluthrin-enhanced late sodium current)
Type: cell-based
Settings: HEK293 hNav1.5, late INa activated with 10 μM Tefluthrin
Description: The late sodium current (Late INa) and peak sodium current (Peak INa) assays are performed on an automated electrophysiology platform, QPatch 16X (Sophion Bioscience, Copenhagen, Denmark), which uses the whole cell patch clamp technique to measure currents through the cell membrane of up to 16 cells at a time. The assay uses an HEK293 (human embryonic kidney) cell line heterologously expressing the wild-type human cardiac sodium channel, hNav1.5, purchased from Millipore (Billerica, Mass.). No beta subunits were coexpressed with the Na channel alpha subunit. Cells are maintained with standard tissue culture procedures and stable channel expression is maintained with 400 μg/mL Geneticin in the culture medium. Cells isolated for use on QPatch are incubated for 5 minutes in Detachin 1X (Genlantis, San Diego, USA) at 37° C. to ensure that 80-90% of the cells are single and not part of a cell cluster. Experiments are carried out at 23-25° C.
For both the Late INa and Peak INa assays, series resistance compensation is set to 100% and series resistance and whole-cell compensation are performed automatically. Currents are digitized at 25 kHz and low-pass filtered at 12 kHz and 10 kHz for the late and peak INa assays, respectively. Currents through open sodium channels are automatically recorded and stored in the Sophion Bioscience Oracle database (Sophion Bioscience, Copenhagen, Denmark). Analysis is performed using QPatch Assay and database software and data are compiled in Excel.
Compound stocks are routinely made by the Gilead Sample Bank in plastic vials to 10 mM in dimethyl sulfoxide (DMSO). In some cases, when compounds are not soluble in DMSO, they are made in 100% ethanol. Stocks are sonicated as necessary. The extracellular solution for screening Late INa is composed of: 140 mM NaCl, 4 mM KCl, 1.8 mM CaCl2, 0.75 mM MgCl2 and 5 mM HEPES with pH adjusted to 7.4 using NaOH. The intracellular solution used to perfuse the inside of the cells for both the Late INa and Peak INa assays contains: 120 mM CsF, 20 mM CsCl, 5 mM EGTA, 5 mM HEPES and pH adjusted to 7.4 with CsOH. Compounds are diluted in extracellular solution to 1 μM in glass vials and then transferred to glass well plates before robotic addition to the cells. A 0 mM Na extracellular solution (0 Na-ECF) is used at the end of each experiment for the Late INa and Peak INa assays to measure baseline current contains: 140 mM N-methyl-D-glucamine; 4 mM KCl; 1.8 mM CaCl2; 0.75 mM MgCl2; 5 mM HEPES and pH was adjusted to 7.4 with HCl.
For the hNav1.5 Late INa assay, sodium channels are activated every 10 seconds (0.1 Hz) by depolarizing the cell membrane to −20 mV for 250 milliseconds (ms) from a holding potential of −120 mV. In response to a −20 mV voltage step, typical hNav1.5 sodium currents activate rapidly to a peak negative current and then inactivate nearly completely within 3-4 ms.
Compounds were tested to determine their activity in blocking the late sodium current. Late INa was generated by adding 10 μM Tefluthrin (pyrethroid) to the extracellular solution while recording Na currents. To confirm the block of late INa observed using the automated screening method, a second late INa enhancer (ATX-II) and the manual patch clamp method were used. ATX-II and tefluthrin occupy distinct, non-overlapping binding sites and modify Na^+ channel function differently to increase late INa. Compounds tested have been found generally to inhibit the enhanced late INa caused by either late INa enhancer. For the purposes of the screening, late INa is defined as the mean current between 225 ms and 250 ms after stepping to −20 mV to activate Na channels. After establishing the whole cell recording configuration, late INa activator is added to each well 4 times over a 16-17 minute period so that the late component of the Na current reaches a stable value. Compounds were then added (typically at 1 μM), in the presence of the late INa activator, with 3 additions over the course of 7 or 8 minutes. […]

wild-type human cardiac sodium channel, hNav1.5, sequence (Q14524 whole entry): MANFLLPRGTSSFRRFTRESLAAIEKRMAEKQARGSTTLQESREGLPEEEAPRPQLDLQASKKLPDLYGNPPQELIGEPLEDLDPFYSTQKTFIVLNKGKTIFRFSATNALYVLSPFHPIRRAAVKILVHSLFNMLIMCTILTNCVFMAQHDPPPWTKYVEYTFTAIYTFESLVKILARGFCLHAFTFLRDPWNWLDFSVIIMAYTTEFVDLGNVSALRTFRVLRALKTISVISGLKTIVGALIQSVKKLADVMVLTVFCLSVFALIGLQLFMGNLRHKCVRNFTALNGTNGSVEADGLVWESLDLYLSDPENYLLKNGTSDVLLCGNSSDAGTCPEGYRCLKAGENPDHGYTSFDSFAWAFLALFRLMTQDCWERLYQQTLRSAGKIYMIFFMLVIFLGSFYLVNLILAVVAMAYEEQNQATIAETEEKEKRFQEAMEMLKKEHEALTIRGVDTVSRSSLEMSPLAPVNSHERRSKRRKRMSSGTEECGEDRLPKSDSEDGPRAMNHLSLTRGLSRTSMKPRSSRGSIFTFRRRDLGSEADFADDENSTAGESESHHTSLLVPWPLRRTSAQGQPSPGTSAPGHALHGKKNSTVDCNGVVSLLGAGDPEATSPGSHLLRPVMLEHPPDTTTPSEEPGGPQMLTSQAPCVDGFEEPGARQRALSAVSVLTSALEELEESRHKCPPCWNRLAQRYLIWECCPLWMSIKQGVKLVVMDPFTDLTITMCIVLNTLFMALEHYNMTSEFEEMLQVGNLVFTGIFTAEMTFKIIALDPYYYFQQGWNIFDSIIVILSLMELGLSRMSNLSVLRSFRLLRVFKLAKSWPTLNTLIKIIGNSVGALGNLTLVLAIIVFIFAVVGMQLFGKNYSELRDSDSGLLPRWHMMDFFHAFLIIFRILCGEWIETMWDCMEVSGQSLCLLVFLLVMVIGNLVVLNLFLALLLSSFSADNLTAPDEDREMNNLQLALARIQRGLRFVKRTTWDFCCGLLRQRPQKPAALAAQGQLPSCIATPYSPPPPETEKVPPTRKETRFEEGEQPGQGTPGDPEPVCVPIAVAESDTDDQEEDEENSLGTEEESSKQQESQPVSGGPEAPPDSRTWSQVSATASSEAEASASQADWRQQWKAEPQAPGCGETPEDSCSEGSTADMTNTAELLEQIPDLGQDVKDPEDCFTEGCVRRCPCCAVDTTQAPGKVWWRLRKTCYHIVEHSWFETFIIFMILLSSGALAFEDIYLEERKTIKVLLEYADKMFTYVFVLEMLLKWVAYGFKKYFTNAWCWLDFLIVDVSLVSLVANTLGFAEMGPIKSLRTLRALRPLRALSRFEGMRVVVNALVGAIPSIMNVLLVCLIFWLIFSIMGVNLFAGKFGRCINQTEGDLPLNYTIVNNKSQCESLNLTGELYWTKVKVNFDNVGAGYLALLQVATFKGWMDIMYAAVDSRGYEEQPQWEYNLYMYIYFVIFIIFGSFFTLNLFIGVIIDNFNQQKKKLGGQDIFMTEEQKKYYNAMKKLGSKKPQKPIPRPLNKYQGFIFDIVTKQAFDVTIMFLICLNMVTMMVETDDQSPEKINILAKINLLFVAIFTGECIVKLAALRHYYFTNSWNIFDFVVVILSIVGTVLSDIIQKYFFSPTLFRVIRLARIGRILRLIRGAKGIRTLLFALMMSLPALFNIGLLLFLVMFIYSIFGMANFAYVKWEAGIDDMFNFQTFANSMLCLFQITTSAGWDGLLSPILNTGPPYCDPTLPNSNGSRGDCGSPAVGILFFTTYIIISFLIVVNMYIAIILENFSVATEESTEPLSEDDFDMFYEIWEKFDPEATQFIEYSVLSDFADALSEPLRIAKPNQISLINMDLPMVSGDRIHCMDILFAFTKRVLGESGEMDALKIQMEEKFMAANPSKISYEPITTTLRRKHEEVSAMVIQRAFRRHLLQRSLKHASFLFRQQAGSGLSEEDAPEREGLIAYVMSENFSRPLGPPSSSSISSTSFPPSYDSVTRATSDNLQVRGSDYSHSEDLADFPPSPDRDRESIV

Question: Which inhibition at 1 µM does the source give for `CN(C)[C@@H]1CCN(C2=NCCOc3ccc(-c4ccc(C(F)(F)F)cc4)cc32)C1` [II-51, (R)—N,N-dimethyl-1-(7-(4-(trifluoromethyl)phenyl)-2,3-dihydrobenzo[f][1,4]oxazepin-5-yl)pyrrolidin-3-amine] here?
Answer: 21%

Question: Which inhibition at 1 µM does the source give for `N#Cc1cnc2n1CCOc1ccc(-c3ccc(C(F)(F)F)cc3)cc1-2` [Compound I-16, 10-(4-(trifluoromethyl)phenyl)-5,6-dihydrobenzo[f]imidazo[1,2-d][1,4]oxazepine-3-carbonitrile] here?
Answer: 1%

Question: With `FC(F)(F)c1ccc(-c2ccc3c(c2)C(Nc2cccc(C(F)(F)F)n2)=NCCO3)cc1` [II-27, 7-(4-(trifluoromethyl)phenyl)-N-(6-(trifluoromethyl)pyridin-2-yl)-2,3-dihydrobenzo[f][1,4]oxazepin-5-amine] as the compound, how does the inhibition at 1 µM read?
Answer: 1%

Question: How did the inhibition at 1 µM turn out when `FC(F)(F)c1ccc(-c2ccc3c(c2)C(NCc2ncccn2)=NCCO3)cc1` [II-7, N-(pyrimidin-2-ylmethyl)-7-(4-(trifluoromethyl)phenyl)-2,3-dihydrobenzo[f][1,4]oxazepin-5-amine] was run?
Answer: 14%

Question: Which inhibition at 1 µM does the source give for `FC(F)(F)c1ccc(-c2ccc3c(c2)C(N2CCOCC2)=NCCO3)cc1` [II-1, 5-morpholino-7-(4-(trifluoromethyl)phenyl)-2,3-dihydrobenzo[f][1,4]oxazepine] here?
Answer: 21%

Question: Which inhibition at 1 µM does the source give for `FC(F)(F)c1ccc(-c2ccc3c(c2)C(NCc2cccc(C(F)(F)F)n2)=NCCO3)cc1` [II-25, 7-(4-(trifluoromethyl)phenyl)-N-((6-(trifluoromethyl)pyridin-2-yl)methyl)-2,3-dihydrobenzo[f][1,4]oxazepin-5-amine] here?
Answer: 20%

Question: Which inhibition at 1 µM does the source give for `O=C(N[C@@H]1CCN(C2=NCCOc3ccc(-c4ccc(C(F)(F)F)cc4)cc32)C1)c1ncccn1` [II-46, (R)—N-(1-(7-(4-(trifluoromethyl)phenyl)-2,3-dihydrobenzo[f][1,4]oxazepin-5-yl)pyrrolidin-3-yl)pyrimidine-2-carboxamide] here?
Answer: 4%

Question: For `FC(F)(F)c1ccc(-c2ccc3c(c2)C(N2CCCC2)=NCCO3)cc1` [II-3, 5-(pyrrolidin-1-yl)-7-(4-(trifluoromethyl)phenyl)-2,3-dihydrobenzo[f][1,4]oxazepine], which inhibition at 1 µM is on record?
Answer: 25%

Question: With `N[C@H]1CCN(C2=NCCOc3ccc(-c4ccc(C(F)(F)F)cc4)cc32)C1` [II-56, (S)-1-(7-(4-(trifluoromethyl)phenyl)-2,3-dihydrobenzo[f][1,4]oxazepin-5-yl)pyrrolidin-3-amine] as the compound, how does the inhibition at 1 µM read?
Answer: 17%

Question: `FC(F)(F)c1ccc(-c2ccc3c(c2)C(NCCn2ccnc2)=NCCO3)cc1` [II-14, N-(2-(1H-imidazol-1-yl)ethyl)-7-(4-(trifluoromethyl)phenyl)-2,3-dihydrobenzo[f][1,4]oxazepin-5-amine] was tested. Which inhibition at 1 µM did it give?
Answer: 17%

Question: Which inhibition at 1 µM does the source give for `NC1CN(C2=NCCOc3ccc(-c4ccc(C(F)(F)F)cc4)cc32)C1` [II-18, 1-(7-(4-(trifluoromethyl)phenyl)-2,3-dihydrobenzo[f][1,4]oxazepin-5-yl)azetidin-3-amine] here?
Answer: 9%

Question: Which inhibition at 1 µM does the source give for `FC1(F)CCN(C2=NCCOc3ccc(-c4ccc(C(F)(F)F)cc4)cc32)CC1` [II-21, 5-(4,4-difluoropiperidin-1-yl)-7-(4-(trifluoromethyl)phenyl)-2,3-dihydrobenzo[f][1,4]oxazepine] here?
Answer: 13%

Question: Which inhibition at 1 µM does the source give for `Cc1cn2c(n1)-c1cc(-c3ccc(C(F)(F)F)cc3)ccc1OCC2` [Compound I-19, 2-methyl-10-(4-(trifluoromethyl)phenyl)-5,6-dihydrobenzo[f]imidazo[1,2-d][1,4]oxazepine] here?
Answer: 13%

Question: `Cn1c(CNC2=NCCOc3ccc(-c4ccc(C(F)(F)F)cc4)cc32)nc2ccccc21` [II-33, N-((1-methyl-1H-benzo[d]imidazol-2-yl)methyl)-7-(4-(trifluoromethyl)phenyl)-2,3-dihydrobenzo[f][1,4]oxazepin-5-amine] was tested. Which inhibition at 1 µM did it give?
Answer: 34%

Question: How did the inhibition at 1 µM turn out when `O=C(c1ncccn1)N1CCC(NC2=NCCOc3ccc(-c4ccc(C(F)(F)F)cc4)cc32)C1` (stereo not drawn) [II-35, pyrimidin-2-yl(3-(7-(4-(trifluoromethyl)phenyl)-2,3-dihydrobenzo[f][1,4]oxazepin-5-ylamino)pyrrolidin-1-yl)methanone] was run?
Answer: 4%

Question: With `CCN(CC)[C@@H]1CCN(C2=NCCOc3ccc(-c4ccc(C(F)(F)F)cc4)cc32)C1` [II-49, (R)—N,N-diethyl-1-(7-(4-(trifluoromethyl)phenyl)-2,3-dihydrobenzo[f][1,4]oxazepin-5-yl)pyrrolidin-3-amine] as the compound, how does the inhibition at 1 µM read?
Answer: 11%

Question: With `FC(F)(F)c1ccc(-c2ccc3c(c2)C(N2CCC(N4CCCC4)C2)=NCCO3)cc1` (stereo not drawn) [II-36, 5-(1,3′-bipyrrolidin-1′-yl)-7-(4-(trifluoromethyl)phenyl)-2,3-dihydrobenzo[f][1,4]oxazepine] as the compound, how does the inhibition at 1 µM read?
Answer: 7%

Question: For `O=C(N[C@@H]1CCN(C2=NCCOc3ccc(-c4ccc(C(F)(F)F)cc4)cc32)C1)c1ccccn1` [II-47, (R)—N-(1-(7-(4-(trifluoromethyl)phenyl)-2,3-dihydrobenzo[f][1,4]oxazepin-5-yl)pyrrolidin-3-yl)picolinamide], which inhibition at 1 µM is on record?
Answer: 18%

Question: Which inhibition at 1 µM does the source give for `OC(CN[C@@H]1CCN(C2=NCCOc3ccc(-c4ccc(C(F)(F)F)cc4)cc32)C1)COc1cccc2ccccc12` (stereo partly drawn) [II-61, 1-(naphthalen-1-yloxy)-3-((R)-1-(7-(4-(trifluoromethyl)phenyl)-2,3-dihydrobenzo[f][1,4]oxazepin-5-yl)pyrrolidin-3-ylamino)propan-2-ol] here?
Answer: 12%

Question: How did the inhibition at 1 µM turn out when `FC(F)(F)c1ccc(-c2ccc3c(c2)C(Nc2nnn[nH]2)=NCCO3)cc1` [II-26, N-(1H-tetrazol-5-yl)-7-(4-(trifluoromethyl)phenyl)-2,3-dihydrobenzo[f][1,4]oxazepin-5-amine] was run?
Answer: 14%

Question: For `O=C(N[C@H]1CCN(C2=NCCOc3ccc(-c4ccc(C(F)(F)F)cc4)cc32)C1)c1ncccn1` [II-45, (S)—N-(1-(7-(4-(trifluoromethyl)phenyl)-2,3-dihydrobenzo[f][1,4]oxazepin-5-yl)pyrrolidin-3-yl)pyrimidine-2-carboxamide], which inhibition at 1 µM is on record?
Answer: 6%

Question: `CC(=O)c1cnc2n1CCOc1ccc(-c3ccc(C(F)(F)F)cc3)cc1-2` [Compound I-15, 1-(10-(4-(trifluoromethyl)phenyl)-5,6-dihydrobenzo[f]imidazo[1,2-d][1,4]oxazepin-3-yl)ethanone] was tested. Which inhibition at 1 µM did it give?
Answer: 12%

Question: How did the inhibition at 1 µM turn out when `CC(C)(C)OC(=O)N[C@@H]1CCN(C2=NCCOc3ccc(-c4ccc(C(F)(F)F)cc4)cc32)C1` [II-50, (R)-tert-butyl 1-(7-(4-(trifluoromethyl)phenyl)-2,3-dihydrobenzo[f][1,4]oxazepin-5-yl)pyrrolidin-3-ylcarbamate] was run?
Answer: 22%

Question: `CN[C@H]1CCN(C2=NCCOc3ccc(-c4ccc(C(F)(F)F)cc4)cc32)C1` [II-44, (S)—N-methyl-1-(7-(4-(trifluoromethyl)phenyl)-2,3-dihydrobenzo[f][1,4]oxazepin-5-yl)pyrrolidin-3-amine] was tested. Which inhibition at 1 µM did it give?
Answer: 9%

Question: How did the inhibition at 1 µM turn out when `Cc1cnc2n1CCOc1ccc(-c3ccc(OC(F)(F)F)cc3)cc1-2` [Compound I-17, 3-methyl-10-(4-(trifluoromethoxy)phenyl)-5,6-dihydrobenzo[f]imidazo[1,2-d][1,4]oxazepine] was run?
Answer: 14%

Question: For `OC[C@H]1CCN(C2=NCCOc3ccc(-c4ccc(C(F)(F)F)cc4)cc32)C1` [II-16, (S)-(1-(7-(4-(trifluoromethyl)phenyl)-2,3-dihydrobenzo[f][1,4]oxazepin-5-yl)pyrrolidin-3-yl)methanol], which inhibition at 1 µM is on record?
Answer: 13%

Question: `CCN(CC)[C@H]1CCN(C2=NCCOc3ccc(-c4ccc(C(F)(F)F)cc4)cc32)C1` [II-48, (S)—N,N-diethyl-1-(7-(4-(trifluoromethyl)phenyl)-2,3-dihydrobenzo[f][1,4]oxazepin-5-yl)pyrrolidin-3-amine] was tested. Which inhibition at 1 µM did it give?
Answer: 24%
